Source: a melting point compilation (Tetko et al.; mined from patent text by program, amines drawn as free bases though some values may be those of a salt)

melting point	Compound
214 to 216 °C	C=Cc1ccc(NC(=O)N2CCN(c3ncnc4cc(OC)c(OC)cc34)CC2)cc1
56 to 57 °C	COC(=O)Cc1ccc(C(=O)OC)cn1
125 to 126 °C	COc1ncnc(OC)c1CON=C(C)c1cc(C)cc(C)n1
34 to 35 °C	COC(=O)c1c(C)oc(C)c1-c1ccc(F)cc1
135 to 136 °C	CC1CN(c2ccc(Nc3cc(Br)cn(C)c3=O)nc2)C1
198 to 199 °C	O=C(NCCO)c1cccc(-c2cc3c(ccn3Cc3ccc(Cl)cc3Cl)cn2)c1
125 °C	N#Cc1ccccc1Oc1ccc(-c2cn(C3CCOCC3)c3ncnc(N)c23)cc1
114 to 115 °C	COC(=O)C(=O)c1cc(F)c(OCCOc2ccc3ccccc3c2)c(F)c1
224 °C	COc1ccc(N2CCN(c3ccc(-n4ccn(CC(F)(F)F)c4=O)cc3)CC2)cc1
133 to 134 °C	COc1ccc(C(=O)Cc2c(Cl)cncc2Cl)c2c1OC(C)(C)O2
180 to 182 °C	CN(C)[C@H]1CC[C@@H](n2cc(-c3ccc(Oc4ccccc4)cc3)c3c(N)ncnc32)CC1
86 to 87 °C	CCCC(=O)c1cc(-c2ccc(C)cc2)no1
160 °C	CC(=O)Nc1ccc(NC(=O)c2ccc(O)cc2)cc1
72 to 74 °C	Cc1cc(Cl)ccc1Cn1nc(C(C)(C)O)c2ccccc21
137 to 139 °C	Cc1ccc(C(=O)NCc2ccc(O)c3ncccc23)cc1
114 to 116 °C	CCCCn1ncc(/C=C(\Cc2cc3c(cc2OC)CCO3)C(=O)O)c1-c1ccc(Cl)cc1OCc1c(Cl)cccc1C(=O)O
183 to 188 °C	C=Cc1c(F)c(F)cc2c(=O)c(C(=O)O)cn(C3CC3)c12
180 to 182 °C	CCOc1cc(C(=CC#N)c2ccc3c(c2)nnn3C)ccc1OC
122 to 123 °C	CC(=O)c1cc2cc(OCCNC[C@H](O)COc3ccccc3)ccc2o1
169 °C	CCN(CC)c1ccc(C=C2CC(C)CC(=Cc3ccc(N(CC)CC)cc3)C2=O)cc1 (stereo unspecified)
198 to 203 °C	Cn1ccc2cc(N3Cc4c(N)cccc4C3=O)ccc21

melting point	Compound
118 °C	COc1cc2c(c(OC(C)=O)c1)C1CCC3(C)C(OC(C)=O)=CCC3C1CC2 (stereo unspecified)
220 °C	Cc1ccc2c(c1)C=Cc1cc(C)ccc1C2c1cn(-c2cc(NCC(=O)Nc3nc(CC(=O)O)cs3)nc(N(C)C)n2)c(=O)[nH]c1=O
222 to 224 °C	Cc1nc(N2CCCC2=O)sc1C(=O)NCc1ccccc1
170 to 173 °C	COC(=O)c1ccc(-c2ccc(OC)cc2)cc1
190 to 200 °C	CC(C)(C)OC(=O)NCC(=O)Nc1ccc2c(c1)-c1c(c(C(=O)C(C#N)C(=O)Nc3ccccc3)nn1-c1ccccc1)CS2 (stereo unspecified)
214 to 216 °C	O=C(O)Cc1cccc2c(-c3ccc(F)cc3)nccc12
295 to 296 °C	COc1ccccc1-n1c(=O)[nH]c2c(C(N)=O)nc(-c3cccc([N+](=O)[O-])c3)nc21
150 °C	COc1cc(CN[C@H]2CC[C@H](Nc3ccnc4cc(Cl)ccc34)CC2)cc(OC)c1
221 to 230 °C	COc1cc2ncnc(Sc3cccc(O)c3)c2cc1OC
130 to 132 °C	CCCc1nn(C)c2c(=O)n(CCOc3cccc(OC(C)(CC)C(=O)O)c3)c(C)nc12 (stereo unspecified)
118 to 120 °C	CN1CCN(C2Cc3cc(Cl)ccc3Sc3ccc(F)cc32)CC1 (stereo unspecified)
78 to 80 °C	COC(=O)c1cccc(OCc2ncc3ccccc3n2)c1
190 °C	Cc1ccc2c(c1)c1cc(C(=O)c3ccccc3C(=O)O)ccc1n2CCC#N
140 to 142 °C	NC(=O)c1cccnc1N1CCN(CC(O)CO)CC1 (stereo unspecified)
> 250 °C	c1ccc(-c2ccc3[nH]c4c(c3c2)CCNCC4)cc1
74 to 75 °C	COC(=O)CCCNC(=O)C[C@H]1O[C@H](c2cccc(OC)c2OC)c2cc(Cl)ccc2N(CC(C)(C)C)C1=O
175 to 178 °C	Cc1c(NC(=O)c2ccc(-c3ccc(OC(F)(F)F)cc3)cc2F)ccc2cc(CN3CCCC3)cnc12
95 to 97 °C	O=S1(=O)c2cccc3cccc(c23)N1CCCN1CCN(c2ccc(F)cc2)CC1
185 to 186 °C	COc1ccc2c(c1)C=Cn1c(nnc1OC)C2
205 to 206 °C	CCCc1nn(C)c2c(=O)[nH]c(-c3cc(NS(C)(=O)=O)ccc3OCC)nc12

Further lines, the compound ahead of its results:

Compound	melting point
CC(=O)c1cc(N)c(Cl)cc1Cl	74 °C
Cc1cn(C(=O)OC(C)(C)C)c2ccc(Br)cc12	92 °C
O=C(O)Cc1c(C(=O)c2ccccc2)[nH]c2cccc(Cl)c12	206 to 209 °C
CC(=O)c1cnc(N)o1	214 to 215 °C
CC(=O)Nc1ccccc1-c1ccn[nH]c1=O	235 to 236 °C
CC(C#N)=CCN1C(=O)c2ccccc2S1(=O)=O	107 to 108 °C
CCOC(=O)c1oc2ccc(Cl)cc2c1C(=O)OCC	33 to 35 °C
Oc1ccc(OCCN2CCC(CC34CC5CC(CC(C5)C3)C4)CC2)cc1	178 to 179 °C
N#Cc1nc(N)c2ncn(C3OC(CO)C(O)C3O)c2n1 (stereo unspecified)	195 to 197 °C
CSC1CCC2C3CCC4=CC(=O)C=CC4(C)C3(F)C(O)CC12C (stereo unspecified)	235 to 236 °C
CS(=O)c1ccc(C2ON2S(=O)(=O)c2ccccc2)cc1 (stereo unspecified)	115 to 118 °C
CCOC(=O)C(Cc1ccc(S(C)=O)cc1)(NC(C)=O)C(=O)OCC (stereo unspecified)	135 to 136 °C
Cn1ccc(=O)c(-c2cccc(C(F)(F)F)c2)c1	122 to 123 °C
Cc1nc[nH]c1CSCCNC(N)=C[N+](=O)[O-]	193 to 195 °C
CCOC(=O)C1=C(C)NC(C)=C(C(=O)OCC)C1c1ccccc1C=CC(=O)O	175 to 178 °C
Oc1ccc2c(c1O)OCC(c1ccccc1)C2 (stereo unspecified)	138 °C
CSc1nc(=O)n(CC(=O)O)cc1F	244 to 245 °C
CNC(=O)NC1(C)CCCc2ccccc21 (stereo unspecified)	183 to 186 °C
O=C(O)Cc1cccc(OCc2ccccc2)c1	127 to 129 °C
ClC1=Nc2cccc(Br)c2C2=NCCN12	220 to 223 °C
CCOC1CCC(=O)N1S(=O)(=O)c1ccccc1 (stereo unspecified)	112 to 113 °C
Nc1ncc(S(=O)(=O)Nc2ccc(Br)c3c(Cl)c[nH]c23)cn1	285 to 289 °C

Compound	melting point
Cc1cc(C)cc(COC2CCCCC2(N)c2ccccc2)c1 (stereo unspecified)	75 to 78 °C
O=[N+]([O-])c1cc(C2=Nc3ccccc3SC2)cc(O)c1O	302 to 304 °C
CCCCCCCCCCCCCCCCCCOc1cc(OCCCCC(=O)O)cc(N(CC(=O)O)CC(=O)O)c1	126 to 128 °C
CCCCSc1nc(N(C)C(C)=O)c(C#N)s1	40 °C
Nc1cc(S(=O)(=O)C(F)(F)F)cc(Cl)c1N	143 to 145 °C
Cc1c(Cl)c(C(=O)O)cc(Cl)c1C(=O)O	169 to 171 °C
N#CCn1nnc(N)n1	105 to 106 °C
CCCCCCCCCCc1ccc(CNc2ccc(C(=O)OCC)cc2)cc1	87 to 90 °C
O=C(O)c1cc2n(c1)CCCC2	131 to 134 °C
CSc1ccc2cc[nH]c2c1	91 to 92 °C
Cc1cc(=O)c2[nH]nc(-c3ccc(Cl)cc3)c2[nH]1	324 to 327 °C
CC1=C(CC2=CC(=O)C=CC2=O)C(=O)C2C=CC=CC2C1=O (stereo unspecified)	142 to 144 °C
Clc1ccc(-c2cnccn2)cc1Cl	118 to 119 °C
O=[N+]([O-])c1ccc2c(ccn2-c2cccnc2)c1	164 to 165 °C
Cc1ccc(N(c2ccc(C)cc2)c2ccc(C(O)(CCCO)CCCO)cc2)cc1	131 to 132 °C
CCCCCCCCCCCCCc1cc(C(=O)OCCC)c[nH]1	51 to 52 °C
CCC1(CCOC2CCCCO2)C(=O)NNC1=O (stereo unspecified)	188 to 191 °C
CS(=O)(=O)Nc1cc(NC(=O)CN)c([N+](=O)[O-])cc1Oc1ccccc1	208 to 210 °C
COc1ccc(CN(C)C)cc1CO	67 to 69 °C
COc1ccc(SCc2oc(=O)oc2C)cc1	59 to 61 °C
C=C(C)C(=O)Oc1ccc(C(=O)c2ccccc2)cc1	69.5 to 70.5 °C
Nc1nc(O)c2c(n1)NCC(CCc1nc(C(=O)N[C@@H](CCC(=O)O)C(=O)O)c[nH]1)C2 (stereo partly specified)	> 260 °C

Compound	melting point
C#CCOC(=O)C1=C(C)N2CCNC2=C(C(=O)OCC)C1c1cccc([N+](=O)[O-])c1 (stereo unspecified)	153 °C
CSc1ccc(Oc2ccc(C#N)cc2)cc1	65 to 66 °C
CCN(CCCN1C(=O)c2cc(OC)ccc2C(C)(C)C1=O)CCCN1C(=O)c2cc(OC)ccc2C(C)(C)C1=O	141 to 143 °C
CNC(=O)c1ccc(C(=O)O)cc1	270 °C
CCC1=NNC(C)=C(C(=O)OC(C)C)C1c1cccc([N+](=O)[O-])c1 (stereo unspecified)	108 °C
CC(=O)N[C@@H](CSC(=O)C(C)(C)C)C(=O)NCCSC(=O)C(C)(C)C	109 to 111 °C
N=C(Nc1ccc(OCCNCc2ccccc2)cc1F)c1cccs1	105 to 107 °C
N#Cc1cnn(-c2cc(Cl)c(Cl)c(Cl)c2Cl)c1N	168 to 169 °C
CCC1(C)CC(NC(=O)C(=O)NC2CC(C)(CC)N(C(C)=O)C(C)(CC)C2C)C(C)C(C)(CC)N1C(C)=O (stereo unspecified)	164 °C
N#Cc1cnn2c1N(C(=O)CCl)CC=C2c1cccc(C(F)(F)F)c1	179 to 181 °C
CCOC(=O)c1c([N+](=O)[O-])c(-c2cccc([N+](=O)[O-])c2)[nH]c(=O)c1C(=O)OCC	188 to 190 °C
Clc1csc2c(Cl)cccc12	100 to 102 °C
CCOC(=O)C1=C(C)NC(=S)N(C(=O)OCc2ccccc2)C1c1cccc([N+](=O)[O-])c1 (stereo unspecified)	122 to 124 °C
CCSCc1c(CCN(C)C)[nH]c2ccccc12	59 to 61 °C
COC(=O)c1cc([N+](=O)[O-])ccc1CS(N)(=O)=O	167 to 170 °C
CCOC(=O)c1oc2ccc(Cl)cc2c1CBr	112 to 114 °C
COc1ccc([N+](=O)[O-])cc1C=CC1=NC(C)(C)CO1	115 to 116 °C
COC(=O)c1ccc(CO)cc1N	100 to 102 °C
CON(c1ccc([N+](=O)[O-])cc1Cl)S(=O)(=O)c1cccc(C(F)(F)F)c1	95.5 to 96.5 °C
CCOC(=O)c1sc(C)nc1OC(=S)N(C)C	87 to 90 °C
C[Si](C)(C)C#Cc1cnc(C(F)(F)F)nc1	75.5 to 76 °C
